Several values for one entry are separate records, joined by “and”; a condition that tells them apart may be missing. Identical values can stand only once. Like-named read-outs stand apart in the source and are kept apart here.
Experiment: Preliminary assessment of pharmacokinetics in mice
Format: in vivo, CD-1 mice
Method: Dosing Regimen 9 CD-1 mice, male, weighing 20-26 g, were randomly divided into 3 groups with 3 mice in each group. The test compounds were administered intragastric, intravenously or intraperitoneally according to the following protocol. The mice were fasted for 12 h before the test and drank water freely. Food was consumed uniformly 2 h after administration. [table] The intragastric administration solution was prepared with DMSO/0.5% HPMC(5/95, v/v) to the final concentration. Intravenous and intraperitoneal administration solution was formulated with DMSO/PEG300/EtOH/NaCl(5/40/5/50, v/v/v). The sample of the administration solution was left (50 μL of the solution was mixed with 50 μL of DMSO before and after the administration, respectively) for test. The drug was given according to the above dose, the time of administration was recorded, and 20 μL of blood was taken from the femoral plexus of mice at the above set time points and placed in heparinized tubes. The blood was immediately centrifuged at 11000 rpm for 5 min. 10 μL of plasma was immediately and accurately sucked into a centrifuge tube prefilled with 100 μL of PK-IS solution (prepared with methanol: acetonitrile (1:1,v/v)), well mixed, and freezed at −20° C. for test.

SMILES: CC(C)Oc1ccc(-c2nc(-c3ccc(CN4CC(C(=O)O)C4)c4ccccc34)no2)cc1C#N.Cl [Compound A1, 1-((4-(5-(3-cyano-4-isopropoxyphenyl)-1,2,4-oxadiazol-3-yl)naphthalen-1-yl)methyl) azetidine-3-carboxylic acid hydrochloric acid]
- Concentration of A1 Drug in Plasma of Mice (intraperitoneal injection 20 mg/kg, 0.05 h, individual animals 4-6, 20 mg/kg): 1105 ng/mL and 473 ng/mL and 715 ng/mL
- Concentration of A1 Drug in Plasma of Mice (intraperitoneal injection 20 mg/kg, 0.25 h, individual animals 4-6, 20 mg/kg): 827 ng/mL and 1507 ng/mL
- Concentration of A1 Drug in Plasma of Mice (intraperitoneal injection 20 mg/kg, 0.75 h, individual animals 4-6, 20 mg/kg): 1206 ng/mL and 1534 ng/mL and 3318 ng/mL
- Concentration of A1 Drug in Plasma of Mice (intraperitoneal injection 20 mg/kg, 2.00 h, individual animals 4-6, 20 mg/kg): 516 ng/mL and 1443 ng/mL and 4405 ng/mL
- Concentration of A1 Drug in Plasma of Mice (intraperitoneal injection 20 mg/kg, 4.00 h, individual animals 4-6, 20 mg/kg): 376 ng/mL and 201 ng/mL and 535 ng/mL
- Concentration of A1 Drug in Plasma of Mice (intraperitoneal injection 20 mg/kg, 8.00 h, individual animals 4-6, 20 mg/kg): 273 ng/mL and 78.2 ng/mL and 119 ng/mL
- Concentration of A1 Drug in Plasma of Mice (intraperitoneal injection 20 mg/kg, 24.0 h, individual animals 4-6, 20 mg/kg): 86.9 ng/mL and 26.5 ng/mL and 35.0 ng/mL
- concentration at 0.25 h (male, CD-1, mouse, plasma, intraperitoneal, 20 mg/kg, title: intraperitoneal 20 mg/kg, 0.25 h, mean, read-out: Concentration of A1 Drug in Plasma of Mice): 1740 ng/mL
- concentration at 0.5 h (male, CD-1, mouse, plasma, intraperitoneal, 20 mg/kg, title: intraperitoneal 20 mg/kg, 0.50 h, mean, read-out: Concentration of A1 Drug in Plasma of Mice): 2160 ng/mL
- concentration at 1 h (male, CD-1, mouse, plasma, intraperitoneal, 20 mg/kg, title: intraperitoneal 20 mg/kg, 1.00 h, mean, read-out: Concentration of A1 Drug in Plasma of Mice): 2600 ng/mL
- concentration at 2 h (male, CD-1, mouse, plasma, intraperitoneal, 20 mg/kg, title: intraperitoneal 20 mg/kg, 2.00 h, mean, read-out: Concentration of A1 Drug in Plasma of Mice): 1180 ng/mL
- concentration at 4 h (male, CD-1, mouse, plasma, intraperitoneal, 20 mg/kg, title: intraperitoneal 20 mg/kg, 4.00 h, mean, read-out: Concentration of A1 Drug in Plasma of Mice): 142 ng/mL
- concentration at 8 h (male, CD-1, mouse, plasma, intraperitoneal, 20 mg/kg, title: intraperitoneal 20 mg/kg, 8.00 h, mean, read-out: Concentration of A1 Drug in Plasma of Mice): 24.6 ng/mL
- concentration at 24 h (male, CD-1, mouse, plasma, intraperitoneal, 20 mg/kg, title: intraperitoneal 20 mg/kg, 24.0 h, individual animals 1-3, read-out: Concentration of A1 Drug in Plasma of Mice): 4.8 ng/mL
- concentration at 24 h (male, CD-1, mouse, plasma, intraperitoneal, 20 mg/kg, title: intraperitoneal 20 mg/kg, 24.0 h, mean, read-out: Concentration of A1 Drug in Plasma of Mice): 4.13 ng/mL
- concentration at 0.05 h (male, CD-1, mouse, plasma, ip, 20 mg/kg, intraperitoneal injection 20 mg/kg, 0.05 h, mean, read-out: Concentration of A1 Drug in Plasma of Mice): 764 ng/mL
- concentration at 0.25 h (male, CD-1, mouse, plasma, ip, 20 mg/kg, intraperitoneal injection 20 mg/kg, 0.25 h, individual animals 4-6, read-out: Concentration of A1 Drug in Plasma of Mice): 1170 ng/mL
- concentration at 0.25 h (male, CD-1, mouse, plasma, ip, 20 mg/kg, intraperitoneal injection 20 mg/kg, 0.25 h, mean, read-out: Concentration of A1 Drug in Plasma of Mice): 1170 ng/mL
- concentration at 0.75 h (male, CD-1, mouse, plasma, ip, 20 mg/kg, intraperitoneal injection 20 mg/kg, 0.75 h, mean, read-out: Concentration of A1 Drug in Plasma of Mice): 2020 ng/mL
- concentration at 2 h (male, CD-1, mouse, plasma, ip, 20 mg/kg, intraperitoneal injection 20 mg/kg, 2.00 h, mean, read-out: Concentration of A1 Drug in Plasma of Mice): 2120 ng/mL
- concentration at 4 h (male, CD-1, mouse, plasma, ip, 20 mg/kg, intraperitoneal injection 20 mg/kg, 4.00 h, mean, read-out: Concentration of A1 Drug in Plasma of Mice): 370 ng/mL
- concentration at 8 h (male, CD-1, mouse, plasma, ip, 20 mg/kg, intraperitoneal injection 20 mg/kg, 8.00 h, mean, read-out: Concentration of A1 Drug in Plasma of Mice): 157 ng/mL
- concentration at 24 h (male, CD-1, mouse, plasma, ip, 20 mg/kg, intraperitoneal injection 20 mg/kg, 24.0 h, mean, read-out: Concentration of A1 Drug in Plasma of Mice): 49.5 ng/mL
- concentration at 0.05 h (male, CD-1, mouse, plasma, po, 2 mg/kg, title: oral 2 mg/kg, 0.05 h, individual animals 4-6, read-out: Concentration of A1 Drug in Plasma of Mice): 1790 ng/mL
- concentration at 0.05 h (male, CD-1, mouse, plasma, po, 2 mg/kg, title: oral 2 mg/kg, 0.05 h, mean, read-out: Concentration of A1 Drug in Plasma of Mice): 1940 ng/mL
- concentration at 0.25 h (male, CD-1, mouse, plasma, po, 2 mg/kg, title: oral 2 mg/kg, 0.25 h, individual animals 4-6, read-out: Concentration of A1 Drug in Plasma of Mice): 1040 ng/mL
- concentration at 0.25 h (male, CD-1, mouse, plasma, po, 2 mg/kg, title: oral 2 mg/kg, 0.25 h, mean, read-out: Concentration of A1 Drug in Plasma of Mice): 878 ng/mL
- concentration at 0.75 h (male, CD-1, mouse, plasma, po, 2 mg/kg, title: oral 2 mg/kg, 0.75 h, individual animals 4-6, read-out: Concentration of A1 Drug in Plasma of Mice): 178 ng/mL
- concentration at 0.75 h (male, CD-1, mouse, plasma, po, 2 mg/kg, title: oral 2 mg/kg, 0.75 h, mean, read-out: Concentration of A1 Drug in Plasma of Mice): 169 ng/mL
- concentration at 2 h (male, CD-1, mouse, plasma, po, 2 mg/kg, title: oral 2 mg/kg, 2.00 h, individual animals 4-6, read-out: Concentration of A1 Drug in Plasma of Mice): 49.2 ng/mL
- concentration at 2 h (male, CD-1, mouse, plasma, po, 2 mg/kg, title: oral 2 mg/kg, 2.00 h, mean, read-out: Concentration of A1 Drug in Plasma of Mice): 49.8 ng/mL
- concentration at 4 h (male, CD-1, mouse, plasma, po, 2 mg/kg, title: oral 2 mg/kg, 4.00 h, mean, read-out: Concentration of A1 Drug in Plasma of Mice): 8.43 ng/mL
- concentration at 8 h (male, CD-1, mouse, plasma, po, 2 mg/kg, title: oral 2 mg/kg, 8.00 h, mean, read-out: Concentration of A1 Drug in Plasma of Mice): 3.97 ng/mL
- concentration at 24 h (male, CD-1, mouse, plasma, po, 2 mg/kg, title: oral 2 mg/kg, 24.0 h, individual animals 4-6, read-out: Concentration of A1 Drug in Plasma of Mice): 0.5 ng/mL
- concentration at 24 h (male, CD-1, mouse, plasma, po, 2 mg/kg, title: oral 2 mg/kg, 24.0 h, mean, read-out: Concentration of A1 Drug in Plasma of Mice): 0.6 ng/mL
- Concentration of A1 Drug in Plasma of Mice (title: intraperitoneal 20 mg/kg, 0.25 h, individual animals 1-3): 1095 ng/mL and 1070 ng/mL and 3041 ng/mL
- Concentration of A1 Drug in Plasma of Mice (title: intraperitoneal 20 mg/kg, 0.50 h, individual animals 1-3): 1574 ng/mL and 1388 ng/mL and 3514 ng/mL
- Concentration of A1 Drug in Plasma of Mice (title: intraperitoneal 20 mg/kg, 1.00 h, individual animals 1-3): 1914 ng/mL and 1843 ng/mL and 4055 ng/mL
- Concentration of A1 Drug in Plasma of Mice (title: intraperitoneal 20 mg/kg, 2.00 h, individual animals 1-3): 571 ng/mL and 1318 ng/mL and 1662 ng/mL
- Concentration of A1 Drug in Plasma of Mice (title: intraperitoneal 20 mg/kg, 4.00 h, individual animals 1-3): 146 ng/mL and 215 ng/mL and 65.0 ng/mL
- Concentration of A1 Drug in Plasma of Mice (title: intraperitoneal 20 mg/kg, 8.00 h, individual animals 1-3): 25.8 ng/mL and 36.4 ng/mL and 11.5 ng/mL

— US20240208954A1, “OXADIAZOLE COMPOUND, PREPARATION METHOD THEREFOR, PHARMACEUTICAL COMPOSITION AND USE THEREOF” (SHANGHAI INSTITUTE OF MATERIA MEDICA, CHINESE ACADEMY OF …, priority 2020, published 2024)
